From patent US20020111386A1, “Apparatus for pulmonary delivery of drugs with simultaneous liquid lavage and ventilation” (priority 1989, published 2002)

Test system: anesthetized and tracheotomized young cats
Assay: Pulmonary administration of drugs dispersed in PFC liquid during liquid ventilation: cardiovascular and airway smooth muscle effects
Format: in vivo, cat
Settings: for effect on airway on addition to perfluorocarbon ventilation liquid: added to a perfluorocarbon ventilation liquid
Protocol: When testing the dose-dependency effect of the pulmonary administration of acetylcholine [ACh], the effect after the administration of the drug (expressed as a percentage of the baseline), as a function of the concentration of the drug, was monitored.
Here, the ACh was dispersed in the PFC liquid medium. The initial amount of ACh dispersed in the PFC liquid was 0.01 mg per each kilogram of the laboratory animal's body weight.
(§1) Each of the animals tested had at least one of the following parameters recorded before, during and after the pulmonary administration of the drug: (a) heart rate (bpm), (b) mean arterial pressure (mm Hg), and (c) tracheal pressure (cm water). The averages for each of these recorded parameters were then calculated, depending upon the number of cats tested. These calculated values are plotted on the graph in FIG. 35.
In addition to the above, the following parameters were also monitored and/or controlled: tidal volume, inspiratory and expiratory liquid flow rate, arterial chemistry, pulmonary compliance and resistance, and/or breathing frequency.
For each incremental increase, the animals tested had at least one of the aforementioned parameters recorded before and after the pulmonary administration of the drug.
Also for each incremental increase, the averages for each recorded parameter were calculated and plotted on the graph in FIG. 35.
Another way in which the effect of the pulmonary administration of ACh was tested was by monitoring carotid pressure, as a function of time, before, during and after the pulmonary administration of the drug. Here, 0.6 mg/kg of Ach was dispersed in the PFC liquid medium.
Yet another way in which the effect of the pulmonary administration of ACh was tested was by monitoring tracheal pressure, as a function of time, before, during and after the pulmonary administration of the drug.
Here, 0.6 mg/kg of ACh was dispersed in the PFC liquid medium.
When testing the dose-dependency effect of the pulmonary administration of epinephrine [Epi], the effect after the administration of the drug (expressed as a percentage of the baseline), as a function of the concentration of the drug, was monitored.
Here, the Epi was dispersed in the PFC liquid medium. The initial amount of Epi dispersed in the PFC liquid was 0.01 mg Per each kilogram of the laboratory animal's body weight.
as §1, with “before” for “before, during”, “36.” for “35.”
Also for each incremental increase, the averages for each recorded parameter were calculated and plotted on the graph in FIG. 36.
Another way in which the effect of the pulmonary administration of Epi was tested was by monitoring the change in mean arterial pressure and heart rate resulting from drug delivery.
Here, 0.50 mg/kg of Epi was dispersed in the PFC liquid medium.
When testing the dose-dependency effect of the pulmonary administration of priscoline [P], the effect after the administration of the drug (expressed as a percentage of the baseline), as a function of the concentration of the drug, was monitored.
Here, the P was dispersed in the PFC liquid medium. The initial amount of P dispersed in the PFC liquid was 4 mg.
Each of the animals tested weighed approximately 3 kg. Each of these test animals had at least one of the following parameters recorded before and after the pulmonary administration of the drug: (a) heart rate (bpm), (b) mean arterial pressure (mm Hg), and (c) right ventricular pressure.
The averages for each of the aforementioned recorded parameters were then calculated, depending upon the number of cats tested. These calculated values are plotted on the graph in FIG. 37. […]

[1] = Epi 0.01 to 1.0 mg/kg in inspired PFC liquid, FIG. 36
[2] = P 4 mg to 12 mg in inspired PFC liquid, animals approx. 3 kg, FIG. 37

## CNC[C@H](O)c1ccc(O)c(O)c1 [Epi, epinephrine]
0.50 mg/kg Epi in PFC liquid
  decrease in tracheal pressure after drug administration: 31%
  increase in heart rate after drug administration: 33%
[1]
  heart rate, dose-dependent response (percentage of baseline): increases
  mean arterial pressure, dose-dependent response (percentage of baseline): increases
  peak tracheal pressure, dose-dependent response (percentage of baseline): decrease
  effect on airway on addition to perfluorocarbon ventilation liquid: Airway dilation

## c1ccc(CC2=NCCN2)cc1 [P, priscoline]
12 mg P in PFC liquid
  decrease in carotid pressure after drug administration: about 30 mm Hg
  onset of decrease in carotid pressure after administration: almost instantaneously
  total time necessary to decrease the carotid pressure by about 30 mm Hg: about 10 seconds
[2]
  heart rate, dose-dependent response (percentage of baseline): remained fairly constant
  mean arterial pressure, dose-dependent response (percentage of baseline): decreases
  right ventricular pressure, dose-dependent response (percentage of baseline): decreases

## CC(C)NCC(O)c1ccc(O)c(O)c1 (centres unmarked) [isoproterenol]
  effect on airway on addition to perfluorocarbon ventilation liquid: Airway dilation

## CC(=O)OCC[N+](C)(C)C [ACh, acetylcholine]
0.6 mg/kg ACh in PFC liquid
  increase in tracheal pressure after drug administration: about 6 mm Hg
  total time necessary to decrease the carotid pressure by about 40 mm Hg: about 10 seconds
  total time necessary to increase the tracheal pressure (cm water) by about 5 mm Hg: about 20 seconds
0.6 mg/kg ACh in PFC liquid, via endotracheal tube
  decrease in carotid pressure after drug administration: about 40 mm Hg
